Measurements as given in ChEMBL document CHEMBL5506049, “Discovery of Novel Small-Molecule-Based Potential PD-L1/EGFR Dual Inhibitors with High Druggability for Glioblastoma Immunotherapy” (J Med Chem, 2024).
Active and inactive are the calls of the source. No cut-off for these calls is given here.

Key:
U-87MG ATCC = assay: Effect on total ERK1/2 level in human U-87 MG cells at 0.25 to 2 uM incubated for 48 hrs by Western blot analysis; type: functional, cell-based; conditions: dose 0.25-2 µM
U-87 MG [1] = assay: Induction of cell cycle arrest in human U-87 MG cells assessed as accumulation of cells at G0/G1 phase at 0.5 uM incubated for 48 hrs by flow cytometry (reference value: 60.51%); type: functional, U-87MG ATCC
U-87 MG [2] = assay: Induction of cell cycle arrest in human U-87 MG cells assessed as accumulation of cells at G0/G1 phase at 1 uM incubated for 48 hrs by flow cytometry (reference value: 60.51%); type: functional, U-87MG ATCC
U-87 MG [3] = assay: Induction of cell cycle arrest in human U-87 MG cells assessed as decrease in accumulation of cells at S phase at 0.5 uM incubated for 48 hrs by flow cytometry (reference value: 30.36%); type: functional, U-87MG ATCC; set-up: scale not given: the % may be the effect or the level left
U-87 MG [4] = assay: Induction of cell cycle arrest in human U-87 MG cells assessed as decrease in accumulation of cells at S phase at 1 uM incubated for 48 hrs by flow cytometry (reference value: 30.36%); type: functional, U-87MG ATCC; set-up: scale not given: the % may be the effect or the level left
[5] = target: Programmed cell death 1 ligand 1 (Mus musculus) (UniProt Q9EP73); assay: (§1) Binding affinity to recombinant mouse His-tagged PD-L1 expressed in HEK293 cells by SPR analysis
[6] = target: Programmed cell death 1 ligand 1 (Mus musculus, UniProt Q9EP73); assay: as §1
U-87 MG [7] = assay: Cytotoxicity activity against human U-87 MG cells assessed as cell viability at 0.5 uM incubated for 48 hrs by CCK-8 assay relative to control; type: functional, U-87MG ATCC; conditions: read-out: Activity
U-87 MG [8] = assay: In vitro immunoregulatory effect in IFN-gamma stimulated human U-87 MG cells co-cultured with PHA-P stimulated with human Jurkat T cell assessed as cytotoxicity by measuring cell viability at 0.5 uM incubated for 48 hrs by CCK-8 assay relative to control; type: functional, U-87MG ATCC
[9] = AUC (0 to t) in Sprague-Dawley rat at 4 mg/kg, iv measured upto 72 hrs by (LC-MS)/MS analysis; type: ADME, organism-based; conditions: in vivo
[10] = AUC (0 to infinity) in Sprague-Dawley rat at 4 mg/kg, iv measured upto 72 hrs by (LC-MS)/MS analysis; type: ADME, organism-based; conditions: in vivo
[11] = MRT (0 to t) in Sprague-Dawley rat at 4 mg/kg, iv measured upto 72 hrs by (LC-MS)/MS analysis; type: ADME, organism-based; conditions: in vivo
[12] = Half life in Sprague-Dawley rat at 4 mg/kg, iv measured upto 72 hrs by (LC-MS)/MS analysis; type: ADME, organism-based; conditions: in vivo
[13] = Tmax in Sprague-Dawley rat at 4 mg/kg, iv measured upto 72 hrs by (LC-MS)/MS analysis; type: ADME, organism-based; conditions: in vivo
[14] = Volume of distribution in Sprague-Dawley rat at 4 mg/kg, iv measured upto 72 hrs by (LC-MS)/MS analysis; type: ADME, organism-based; conditions: in vivo
[15] = Cmax in Sprague-Dawley rat at 4 mg/kg, iv measured upto 72 hrs by (LC-MS)/MS analysis; type: ADME, organism-based; conditions: in vivo
[16] = AUC (0 to t) in Sprague-Dawley rat at 20 mg/kg, po measured upto 72 hrs by (LC-MS)/MS analysis; type: ADME, organism-based; conditions: in vivo
[17] = Half life in Sprague-Dawley rat at 20 mg/kg, po measured upto 72 hrs by (LC-MS)/MS analysis; type: ADME, organism-based; conditions: in vivo
[18] = Tmax in Sprague-Dawley rat at 20 mg/kg, po measured upto 72 hrs by (LC-MS)/MS analysis; type: ADME, organism-based; conditions: in vivo
[19] = Volume of distribution in Sprague-Dawley rat at 20 mg/kg, po measured upto 72 hrs by (LC-MS)/MS analysis; type: ADME, organism-based; conditions: in vivo
[20] = Clearance in Sprague-Dawley rat at 20 mg/kg, po measured upto 72 hrs by (LC-MS)/MS analysis; type: ADME, organism-based; conditions: in vivo
[21] = Cmax in Sprague-Dawley rat at 20 mg/kg, po measured upto 72 hrs by (LC-MS)/MS analysis; type: ADME, organism-based; conditions: in vivo
[22] = Oral bioavailability in Sprague-Dawley rat at 20 mg/kg measured upto 72 hrs by (LC-MS)/MS analysis; type: ADME, organism-based; conditions: in vivo
[23] = Ratio of brain to plasma concentration in Sprague-Dawley rat at 5 mg/kg, iv measured after 20 mins; type: ADME, organism-based
[24] = Toxicity in C57BL/6 mouse xenografted with […] GL261 cells assessed as body weight loss at 50 to 100 mg/kg, IG treated for 21 days; type: organism-based; conditions: in vivo, po, 504 h, dose 50-100 mg/kg, time 21 day
[25] = Toxicity in C57BL/6 mouse xenografted with […] GL261 cells assessed as adverse effect at 50 to 100 mg/kg, IG treated for 21 days; type: organism-based; conditions: in vivo, po, 504 h, dose 50-100 mg/kg, time 21 day
GL261 = assay: In vivo antitumor activity against […] GL261 cells xenografted in intragastrically dosed C57BL/6 mouse assessed as decrease in tumor size treated for 21 days relative to control; type: functional, organism-based; conditions: route ig, time 21.0 day
[26] = In vivo antitumor activity against […] GL261 cells xenografted in C57BL/6 mouse assessed as decrease in tumor weight at 100 mg/kg, IG treated for 21 days relative to control; type: functional; set-up: scale not given: the % may be the effect or the level left; conditions: time 21 day
[27] = In vivo antitumor activity against […] GL261 cells xenografted in C57BL/6 mouse assessed as tumor growth inhibition (tumor weight decrease) at 50 mg/kg, IG treated for 21 days relative to control; type: functional; conditions: GL261, po, 504 h, time 21 day, read-out: TGI
[28] = In vivo antitumor activity against […] GL261 cells xenografted in C57BL/6 mouse assessed as decrease in EGFR phosphorylation in tumor tissue at 100 mg/kg, IG treated for 21 days relative to control; type: functional; set-up: scale not given: the % may be the effect or the level left; conditions: time 21 day
[29] = Toxicity in C57BL/6 mouse xenografted with […] GL261 cells assessed as cell necrosis in heart at 100 mg/kg, IG treated for 21 days by hematoxylin-eosin staining based microscopy assay; type: organism-based; conditions: in vivo, po, 504 h, time 21 day
[30] = Toxicity in C57BL/6 mouse xenografted with […] GL261 cells assessed as cell necrosis in liver at 100 mg/kg, IG treated for 21 days by hematoxylin-eosin staining based microscopy assay; type: organism-based; conditions: in vivo, po, 504 h, time 21 day
[31] = Toxicity in C57BL/6 mouse xenografted with […] GL261 cells assessed as cell necrosis in spleen at 100 mg/kg, IG treated for 21 days by hematoxylin-eosin staining based microscopy assay; type: organism-based; conditions: in vivo, po, 504 h, time 21 day
[32] = Toxicity in C57BL/6 mouse xenografted with […] GL261 cells assessed as cell necrosis in lung at 100 mg/kg, IG treated for 21 days by hematoxylin-eosin staining based microscopy assay; type: organism-based; conditions: in vivo, po, 504 h, time 21 day
[33] = Toxicity in C57BL/6 mouse xenografted with […] GL261 cells assessed as cell necrosis in kidney at 100 mg/kg, IG treated for 21 days by hematoxylin-eosin staining based microscopy assay; type: organism-based; conditions: in vivo, po, 504 h, time 21 day
U-87 MG [34] = assay: cells; conditions: Homo sapiens, 72 h
Description: Antiproliferative activity against human U-87 MG cells incubated for 72 hrs by MTT assay

U-251 = assay: cells; conditions: Homo sapiens, U-251, 72 h
Description: Antiproliferative activity against human U-251 cells incubated for 72 hrs by MTT assay

cells [35] = conditions: GL261, 72 h
Description: Antiproliferative activity against human GL261 cells incubated for 72 hrs by MTT assay

cells [36] = conditions: Homo sapiens, U87MG Human EGFR vIII, 72 h
Description: Antiproliferative activity against human U87vIII cells expressing EGFRvIII incubated for 72 hrs by MTT assay

Sequence of Programmed cell death 1 ligand 1 (Q9EP73 whole entry): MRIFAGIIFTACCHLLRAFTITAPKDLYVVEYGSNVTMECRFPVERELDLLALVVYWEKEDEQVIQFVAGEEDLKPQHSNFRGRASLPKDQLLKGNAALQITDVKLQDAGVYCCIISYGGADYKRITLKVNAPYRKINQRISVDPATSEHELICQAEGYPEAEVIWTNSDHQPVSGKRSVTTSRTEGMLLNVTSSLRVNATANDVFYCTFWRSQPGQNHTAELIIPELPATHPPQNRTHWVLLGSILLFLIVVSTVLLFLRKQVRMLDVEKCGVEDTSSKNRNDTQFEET
Sequence of Programmed cell death 1 ligand 1 (Mus musculus) (Q9EP73 whole entry): as above

AUC(0-t) at 72 h [9]: 2830 ng·h/mL | AUC(0-inf) [10]: 2910 ng·h/mL | MRT last at 72 h [11]: 12.7 h | half-life [12]: 6.8 h | Tmax [13]: 2.4 min | Vd [14]: 13.7 L/kg | Cmax [15]: 326 ng/mL | AUC(0-t) at 72 h [16]: 3150 ng·h/mL | half-life [17]: 13 h | Tmax [18]: 3.6 h | Vd [19]: 123.5 L/kg | CL/F [20]: 107 mL/min/kg | Cmax [21]: 255 ng/mL | bioavailability [22]: 22.2% | BPR [23]: 10% | IC50 (U-87 MG [34]): 770 nM | IC50 (U-251): 1020 nM | IC50 (cells [35]): 1190 nM | IC50 (cells [36]): 280 nM
Structure (SMILES): COc1cc2ncnc(Nc3cccc(Cl)c3F)c2cc1OCCCCNCc1c(OC)cc(OCc2cccc(-c3ccccc3)c2C)cc1OC
Activity (U-87MG ATCC): inactive | Activity (U-87 MG [1]): 63.57% | Activity (U-87 MG [2]): 69.48% | Activity (U-87 MG [3]): 28.36% | Activity (U-87 MG [4]): 22.89% | Activity [5]: Dose-Dependent Effect | Kd [6]: 520 nM | viability at 0.5 µM (U-87 MG [7]): 96.9% | Activity (U-87 MG [8]): 73.8% | Activity [24]: Non-Toxic | Activity [25]: Non-Toxic | Activity (GL261): Dose-Dependent Effect | Activity [26]: 92% | inhibition in vivo at 50 mg/kg [27]: 61.4% | Activity [28]: ~50% | Activity [29]: Non-Toxic | Activity [30]: Non-Toxic | Activity [31]: Non-Toxic | Activity [32]: Non-Toxic | Activity [33]: Non-Toxic
